The structures appear in SMILES notation.

Data set [1] deals with monkey eye. In words: IOP after additional instillation 12 hours after instillation of 0.005% latanoprost in monkeys (Example 2). It is filed as in vivo, cynomolgus monkeys. The note with it: 30 μL; for effect on IOP of additional instillation, compared with 0.005% latanoprost alone: 0.0005% solution, instilled 12 hours after instillation of 0.005% latanoprost, IOP followed to 32 hours. An excerpt: This Example illustrates the employment of a low dose of 15-keto latanoprost for maintaining a low IOP level following single administration of another IOP reducing agent for obtaining a rapid drop in IOP.
The changes of IOP in 3 different treatment groups were compared to investigate the significance of the presence of 15-keto acid of latanoprost, a 13,14-dihydro-15-keto type metabolite, in maintaining the IOP lowering effect observed after instillation of latanoprost.
15-keto-latanoprost and latanoprost which were synthesized in Ueno Institute for Medical Science were used.
Six male cynomolgus monkeys (body weight: 3.2-3.8 kg) were used. These monkeys were housed individually in cages for monkeys in a monkey rearing room which was maintained at room temperature of 24±1° C., relative humidity of 55±10%, and ventilation of about 12 times/hour and a 12-hour light-dark cycle (fluorescent lighting: 8:00 a.m. to 8:00 p.m.). The animals were given solid food for monkeys (PS, Oriental Yeast Co., Ltd.), vegetables and fruits, and allowed free access to tap water from an automatic dispenser. The healthy animals without abnormalities in the anterior segment were used in this study.
0.0005% and 0.005% latanoprost eye drops and 0.0005% 15-keto-latanoprost eye drops were prepared with a vehicle consisting of the following composition. The composition of the vehicles in 1 mL was as follows: sodium chloride (4.1 mg), sodium hydrogenphosphate-1H2O (4.6 mg), disodium hydrogenphosphate-2H2O (5.94 mg), benzalkonium chloride (0.200 mg) and water for injection (1 mL).
In the present study, changes in IOP after instillation of 0.005% latanoprost alone at the clinical concentration were compared with those in IOP after additional instillation of 0.0005% latanoprost or 0.0005% 15-keto-latanoprost 12 hours after instillation of 0.005% latanoprost to investigate the significance of the presence of a 13,14-dihydro-15-keto type metabolite in maintaining the IOP lowering effect observed after instillation of latanoprost.
The following 3 treatments were given to the right eye of monkeys at the intervals of at least 10 days. […]
After the ocular surface of monkeys was anesthetized with 0.4% oxybuprocaine hydrochloride (Benoxil® 0.4% solution, Santen Pharmaceutical Co., Ltd.) under i.m. systemic anesthesia with 5-7.5 mg/kg of ketamine hydrochloride, IOP was measured with an applanation pneumatonograph (Alcon Japan Ltd.). IOP was measured before instillation and at 4, 8, 12, 16, 20, 24, 28 and 32 hours after instillation of 0.005% latanoprost.

For data set [2] the following is noted: latanoprost at its clinical concentration; cited from earlier work.
Data set [3] relates to monkey eye. In words: IOP test after a single topical ocular instillation in monkeys (Example 1). Format: in vivo, cynomolgus monkeys. Conditions: 0.0005% solution, 35 μL/eye; for intraocular pressure lowering effect (in words): compared with vehicle-treated contralateral eye, Student's t-test. From the text: This Example is an IOP test using the monkey eye in which about one tenth the clinical dose of latanoprost is compared in IOP reduction with the same dose of 15-keto latanoprost.
The intraocular pressure lowering effects of the 0.0005% solution of 13,14-dihydro-15-keto-17-phenyl-18,19,20-trinor-PGF2α-isopropyl ester (15-keto-latanoprost) and the 0.0005% solution of 13,14-dihydro-17-phenyl-18,19,20-trinor-PGF2α-isopropyl ester (latanoprost) were compared following a single, topical ocular instillation in monkeys.
The solution containing 15-keto-latanoprost or latanoprost at 0.0005% was prepared with the following vehicle. Composition of the vehicle^1) (/mL): NaCl (4.1 mg), NaH2PO4—H2O (4.6 mg), Na2HPO4—2H2O (5.94 mg), Benzalkonium Chloride (0.2 mg) and water for injection
Five male cynomolgus monkeys purchased from Kasyo Co., Ltd. were used. These monkeys were housed individually in cages for monkeys in a room which was maintained at room temperature of 24±1° C., relative humidity of 55±10%, ventilation rate of about 12 times/hour and 12-hour light-dark cycle (fluorescent lighting: 8:00 a.m. to 8:00 p.m.). The animals were given food pellets for monkeys (PS, Oriental Yeast Co., Ltd.), vegetables and fruits, and allowed free access to tap water from an automatic dispenser. The healthy animals without abnormalities in the anterior segment of the eye were used in this study.
Five monkeys were divided into 2 groups of the group 1 (3 monkeys) and group 2 (2 monkeys). […]
The animals were systemically anesthetized by an intramuscular injection of 5 mg/kg of ketamine hydrochloride (Ketalar®50, Sankyo Co., Ltd.), and the anterior segment of both eyes was anesthetized by a instillation of 0.4% oxybuprocaine hydrochloride (Benoxil® 0.4% solution, Santen Pharmaceutical Co., Ltd.). The animals were fixed in a sitting position, and the intraocular pressure was measured by use of an applanation pneumatonograph (Alcon Japan Ltd.) before, and 2, 4, 8, 12 and 24 hours after the instillation. […]
The data were statistically analyzed with Student's t-test.

A short description of data set [4]: Ocular side effects of topical application (stated, no method described). It is filed as in vivo. Conditions: 15-keto latanoprost at the dosages described herein.
Setting [5] is: single instillation of 0.005% latanoprost (clinical concentration), right eye.

As for `CC(C)OC(=O)CCC/C=C\C[C@@H]1[C@@H](CC[C@@H](O)CCc2ccccc2)[C@H](O)C[C@@H]1O` [latanoprost, 13,14-dihydro-17-phenyl-18,19,20-trinor-PGF2α-isopropyl ester], the “effect on IOP of additional instillation, compared with 0.005% latanoprost alone” value in the data set with monkey eye [1] is on record as “did not affect IOP”. Moreover, in the data set with monkey eye [1] (setting [5]), the “time at which intraocular pressure returned to the predosing level” value worked out at 24 h and the “time of maximum reduction of intraocular pressure after instillation” value stood at 12 h. The “ocular side effects (iris pigmentation, IOP spike, hyperemia)” value in data set [2] was “can cause pigmentation of the iris, a mild IOP spike and/or mild hyperemia”. For the same molecule, the “intraocular pressure lowering effect (in words)” value with monkey eye [3] is given as “did not lower the intraocular pressure”.
For the molecule `CC(C)OC(=O)CCC/C=C\C[C@@H]1[C@@H](CCC(=O)CCc2ccccc2)[C@H](O)C[C@@H]1O` [15-keto-latanoprost, 13,14-dihydro-15-keto-17-phenyl-18,19,20-trinor-PGF2α-isopropyl ester], the “effect on IOP of additional instillation, compared with 0.005% latanoprost alone” value with monkey eye [1] is on record as “maintained at significantly low levels”. The “ocular side effects (iridic pigmentation, initial IOP spike, hyperemia)” value in data set [4] is reported as “does not cause iridic pigmentation, an initial IOP spike nor any hyperemia”. Further, the “intraocular pressure lowered as compared with the pre-treatment value” with monkey eye [3] (8 hours after the instillation, n=5) amounted to 2.4 mmHg. Moreover, the “intraocular pressure lowering effect (in words)” value in the data set on monkey eye [3] is listed as “statistically significant”.
